For six molecules, mass density results are on record in the NIST ThermoML archive (doi:10.1016/j.fluid.2017.05.024).

The conditions of series [1]: 298.15 K, Liquid.
Series [2] can be described thus: xn = mol fraction of the nth substance listed. The settings on record: 298.15 K, 100 kPa, Liquid, Vibrating tube method.

± gives the expanded uncertainty stated by the source.

In the case of `OCCO` [1,2-ethanediol], the mass density – broadly, the mass of a sample divided by its volume – in series [1] (100 kPa, Vibrating tube method) came to 1112.1 ± 1.4 kg/m3.

For the molecule `OCCO` [1,2-ethanediol] + CCCC[N+](CCCC)(CCCC)CCCC.[Br-], the mass density in series [2] (x2 = 0) was found to be 1112.1 ± 1.4 kg/m3.

`c1c[nH]cn1` [1H-imidazole] + CCCC[N+](CCCC)(CCCC)CCCC.[Br-]: the mass density in series [2] (x2 = 0.333) is reported as 1092.2 ± 1 kg/m3.

Consider `OCC(O)CO` [glycerol], for which the mass density in series [1] (101.33 kPa, Pycnometric method) came to 1262 ± 2 kg/m3.

In the case of `CCCC[N+](CCCC)(CCCC)CCCC.[Br-]` [tetrabutylammonium bromide] + OCC(O)CO, the mass density in series [2] (x1 = 0.2) came to 1137.1 ± 1.3 kg/m3.

With `CCCC[N+](CCCC)(CCCC)CCCC.[Br-]` [tetrabutylammonium bromide] + OCCO, the mass density in series [2] (x1 = 0.2) is 1069.1 ± 1.2 kg/m3.
